According to ChEMBL document CHEMBL1138012, “Parallel synthesis of acylsemicarbazide libraries: preparation of potent cyclin dependent kinase (cdk) inhibitors” (Bioorg Med Chem Lett, 2004):

The compounds below were run on HCT-116 (assay: Inhibitory concentration against human colon cancer HCT116 cell line).
Assay type: functional, cell-based

| IC50 [nM] | SMILES |
| --- | --- |
| 280 | COc1ccc(-c2[nH]nc3c2C(=O)c2c(NC(=O)NNC(=O)Nc4ccccc4)cccc2-3)cc1 |
| 80 | COc1ccc(-c2[nH]nc3c2C(=O)c2c(NC(=O)NNC(=O)c4ccccc4O)cccc2-3)cc1 |
| 250 | COc1ccc(-c2[nH]nc3c2C(=O)c2c(NC(=O)NNC(=O)c4ccc(O)cc4O)cccc2-3)cc1 |
| 120 | COc1ccc(-c2[nH]nc3c2C(=O)c2c(NC(=O)NNC(=O)c4ccc5ccccc5c4)cccc2-3)cc1 |
| 40 | COc1ccc(-c2[nH]nc3c2C(=O)c2c(NC(=O)NNC(=O)c4ccccc4OC)cccc2-3)cc1 |
| 140 | COc1ccc(-c2[nH]nc3c2C(=O)c2c(NC(=O)NNC(=O)c4ccc(C)cc4)cccc2-3)cc1 |
| 70 | COc1ccc(-c2[nH]nc3c2C(=O)c2c(NC(=O)NNC(=O)c4ccc(N)cc4)cccc2-3)cc1 |
| 190 | COc1ccc(-c2[nH]nc3c2C(=O)c2c(NC(=O)NNC(=O)c4ccncc4)cccc2-3)cc1 |
| 80 | COc1ccc(-c2[nH]nc3c2C(=O)c2c(NC(=O)NNC(=O)c4cccc(N)c4)cccc2-3)cc1 |
| 50 | COC(=O)NNC(=O)Nc1cccc2c1C(=O)c1c-2n[nH]c1-c1ccc(OC)cc1 |
| 1100 | COc1ccc(-c2[nH]nc3c2C(=O)c2c(NC(=O)NNC(=O)c4ccc(O)cc4)cccc2-3)cc1 |
| 30 | COc1ccc(-c2[nH]nc3c2C(=O)c2c(NC(=O)NNC(=O)c4ccccc4)cccc2-3)cc1 |
| 190 | COc1ccc(-c2[nH]nc3c2C(=O)c2c(NC(=O)NNC(=O)c4cccnc4)cccc2-3)cc1 |
| 1200 | COc1ccc(-c2[nH]nc3c2C(=O)c2c(NC(=O)NNC(=O)C(N)=O)cccc2-3)cc1 |

What follows are compounds tested against Cyclin-dependent kinase 2/cyclin E (Homo sapiens, UniProt P24941) (assay: Inhibitory concentration against Cyclin dependant kinase 2-cyclinE).
Assay type: protein-complex assay

| IC50 [nM] | SMILES |
| --- | --- |
| 20 | COc1ccc(-c2[nH]nc3c2C(=O)c2c(NC(=O)NNC(=O)c4cccc([N+](=O)[O-])c4)cccc2-3)cc1 |
| 10 | COc1ccc(-c2[nH]nc3c2C(=O)c2c(NC(=O)NNC(=O)Nc4ccccc4)cccc2-3)cc1 |
| 30 | COc1ccc(-c2[nH]nc3c2C(=O)c2c(NC(=O)NNC(=O)c4cc(N)cc(N)c4)cccc2-3)cc1 |
| 9 | COc1ccc(-c2[nH]nc3c2C(=O)c2c(NC(=O)NNC(=O)c4ccccc4O)cccc2-3)cc1 |
| 10 | COc1ccc(-c2[nH]nc3c2C(=O)c2c(NC(=O)NNC(=O)C(C)C)cccc2-3)cc1 |
| 10 | COc1ccc(-c2[nH]nc3c2C(=O)c2c(NC(=O)NNC(=O)c4ccc(O)cc4O)cccc2-3)cc1 |
| 30 | COc1ccc(-c2[nH]nc3c2C(=O)c2c(NC(=O)NNC(=O)c4ccc5ccccc5c4)cccc2-3)cc1 |
| 10 | COc1ccc(-c2[nH]nc3c2C(=O)c2c(NC(=O)NNC(=O)c4ccccc4OC)cccc2-3)cc1 |
| 10 | COc1ccc(-c2[nH]nc3c2C(=O)c2c(NC(=O)NNC(=O)c4cccc(C)c4)cccc2-3)cc1 |
| 10 | COc1ccc(C(=O)NNC(=O)Nc2cccc3c2C(=O)c2c(-c4ccc(OC)cc4)n[nH]c2-3)cc1 |
| 20 | COc1ccc(-c2[nH]nc3c2C(=O)c2c(NC(=O)NNC(=O)c4ccc(C)cc4)cccc2-3)cc1 |
| 130 | COc1ccc(-c2[nH]nc3c2C(=O)c2c(NC(=O)NNC(N)=O)cccc2-3)cc1 |
| 30 | COc1ccc(-c2[nH]nc3c2C(=O)c2c(NC(=O)NNC(=O)Cc4ccccc4)cccc2-3)cc1 |
| 10 | COc1ccc(-c2[nH]nc3c2C(=O)c2c(NC(=O)NNC(=O)c4ccc(N)cc4)cccc2-3)cc1 |
| 10 | COc1ccc(-c2[nH]nc3c2C(=O)c2c(NC(=O)NNC(=O)c4ccncc4)cccc2-3)cc1 |
| 240 | COc1ccc(-c2[nH]nc3c2C(=O)c2c(NC=O)cccc2-3)cc1 |
| 10 | COc1ccc(-c2[nH]nc3c2C(=O)c2c(NC(=O)NNC(=O)c4cccc(N)c4)cccc2-3)cc1 |
| 30 | COc1ccc(-c2[nH]nc3c2C(=O)c2c(NC(=O)NNC(C)=O)cccc2-3)cc1 |
| 30 | COc1ccc(-c2[nH]nc3c2C(=O)c2c(NC(=O)NNC(=O)c4cc(Cl)ccc4Cl)cccc2-3)cc1 |
| 10 | COC(=O)NNC(=O)Nc1cccc2c1C(=O)c1c-2n[nH]c1-c1ccc(OC)cc1 |
| 10 | COc1ccc(-c2[nH]nc3c2C(=O)c2c(NC(=O)NNC(=O)c4ccccc4)cccc2-3)cc1 |
| 10 | COc1ccc(-c2[nH]nc3c2C(=O)c2c(NC(=O)NNC(=O)c4cccnc4)cccc2-3)cc1 |
| 50 | COc1ccc(-c2[nH]nc3c2C(=O)c2c(NC(=O)NNC(=O)c4cccc5ccccc45)cccc2-3)cc1 |
| 90 | COc1ccc(-c2[nH]nc3c2C(=O)c2c(NC(=O)NNC(=O)C(N)=O)cccc2-3)cc1 |
| 40 | COc1ccc(-c2[nH]nc3c2C(=O)c2c(NC(=O)NNC(=O)c4cc(OC)cc(OC)c4)cccc2-3)cc1 |
| 10 | COc1ccc(-c2[nH]nc3c2C(=O)c2c(NC(=O)NNC(=O)CCc4ccc(O)cc4)cccc2-3)cc1 |
| 20 | COc1ccc(-c2[nH]nc3c2C(=O)c2c(NC(=O)NNC(=O)c4ccc(O)c(N)c4)cccc2-3)cc1 |
| 10 | COc1ccc(-c2[nH]nc3c2C(=O)c2c(NC(=O)NNC(=O)c4ccc(O)c(O)c4)cccc2-3)cc1 |
| 20 | COc1ccc(-c2[nH]nc3c2C(=O)c2c(NC(=O)NNC(=O)c4cc(OC)c(OC)c(OC)c4)cccc2-3)cc1 |

The compounds below were run against Cyclin-dependent kinase 4/cyclin D1 (Homo sapiens, UniProt P11802) (assay: Inhibitory concentration against Cyclin dependant kinase 4-cyclinD1).
Assay type: protein-complex assay

Sequence of Cyclin-dependent kinase 4/cyclin D1 (P11802 whole entry): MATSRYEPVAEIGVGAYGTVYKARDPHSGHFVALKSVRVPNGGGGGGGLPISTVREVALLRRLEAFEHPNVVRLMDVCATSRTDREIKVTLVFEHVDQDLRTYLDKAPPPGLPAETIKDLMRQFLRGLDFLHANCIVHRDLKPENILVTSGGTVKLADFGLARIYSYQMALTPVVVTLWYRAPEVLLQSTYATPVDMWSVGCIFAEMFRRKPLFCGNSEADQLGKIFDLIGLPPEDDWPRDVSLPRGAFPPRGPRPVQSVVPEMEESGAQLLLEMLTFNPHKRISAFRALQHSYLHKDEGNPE
Sequence of Cyclin-dependent kinase 4/cyclin D1 (P24385 whole entry, further chain): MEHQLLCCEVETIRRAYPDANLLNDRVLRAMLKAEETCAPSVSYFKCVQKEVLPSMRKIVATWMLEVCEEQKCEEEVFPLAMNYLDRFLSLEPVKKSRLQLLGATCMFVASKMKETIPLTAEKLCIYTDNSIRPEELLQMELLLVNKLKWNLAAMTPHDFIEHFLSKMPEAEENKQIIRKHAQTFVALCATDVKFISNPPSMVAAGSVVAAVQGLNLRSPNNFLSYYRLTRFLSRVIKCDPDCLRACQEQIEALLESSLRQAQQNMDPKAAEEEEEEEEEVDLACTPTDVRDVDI

| IC50 [nM] | SMILES |
| --- | --- |
| 10 | COc1ccc(-c2[nH]nc3c2C(=O)c2c(NC(=O)NNC(=O)c4cccc([N+](=O)[O-])c4)cccc2-3)cc1 |
| 10 | COc1ccc(-c2[nH]nc3c2C(=O)c2c(NC(=O)NNC(=O)c4cc(N)cc(N)c4)cccc2-3)cc1 |
| 60 | COc1ccc(-c2[nH]nc3c2C(=O)c2c(NC(=O)NNC(=O)c4ccccc4O)cccc2-3)cc1 |
| 6.5 | COc1ccc(-c2[nH]nc3c2C(=O)c2c(NC(=O)NNC(=O)C(C)C)cccc2-3)cc1 |
| 10 | COc1ccc(-c2[nH]nc3c2C(=O)c2c(NC(=O)NNC(=O)c4ccc(O)cc4O)cccc2-3)cc1 |
| 10 | COc1ccc(-c2[nH]nc3c2C(=O)c2c(NC(=O)NNC(=O)c4ccc5ccccc5c4)cccc2-3)cc1 |
| 7 | COc1ccc(-c2[nH]nc3c2C(=O)c2c(NC(=O)NNC(=O)c4cccc(C)c4)cccc2-3)cc1 |
| 10 | COc1ccc(C(=O)NNC(=O)Nc2cccc3c2C(=O)c2c(-c4ccc(OC)cc4)n[nH]c2-3)cc1 |
| 20 | COc1ccc(-c2[nH]nc3c2C(=O)c2c(NC(=O)NNC(=O)Cc4ccccc4)cccc2-3)cc1 |
| 10 | COc1ccc(-c2[nH]nc3c2C(=O)c2c(NC(=O)NNC(=O)c4ccc(N)cc4)cccc2-3)cc1 |
| 9 | COc1ccc(-c2[nH]nc3c2C(=O)c2c(NC(=O)NNC(=O)c4ccncc4)cccc2-3)cc1 |
| 400 | COc1ccc(-c2[nH]nc3c2C(=O)c2c(NC=O)cccc2-3)cc1 |
| 7 | COc1ccc(-c2[nH]nc3c2C(=O)c2c(NC(=O)NNC(=O)c4cccc(N)c4)cccc2-3)cc1 |
| 50 | COc1ccc(-c2[nH]nc3c2C(=O)c2c(NC(=O)NNC(C)=O)cccc2-3)cc1 |
| 20 | COc1ccc(-c2[nH]nc3c2C(=O)c2c(NC(=O)NNC(=O)c4cc(Cl)ccc4Cl)cccc2-3)cc1 |
| 8 | COC(=O)NNC(=O)Nc1cccc2c1C(=O)c1c-2n[nH]c1-c1ccc(OC)cc1 |
| 5 | COc1ccc(-c2[nH]nc3c2C(=O)c2c(NC(=O)NNC(=O)c4ccc(O)cc4)cccc2-3)cc1 |
| 7 | COc1ccc(-c2[nH]nc3c2C(=O)c2c(NC(=O)NNC(=O)c4ccccc4)cccc2-3)cc1 |
| 9 | COc1ccc(-c2[nH]nc3c2C(=O)c2c(NC(=O)NNC(=O)c4cccnc4)cccc2-3)cc1 |
| 240 | COc1ccc(-c2[nH]nc3c2C(=O)c2c(NC(=O)NNC(=O)C(N)=O)cccc2-3)cc1 |
| 20 | COc1ccc(-c2[nH]nc3c2C(=O)c2c(NC(=O)NNC(=O)c4cc(OC)cc(OC)c4)cccc2-3)cc1 |
| 9 | COc1ccc(-c2[nH]nc3c2C(=O)c2c(NC(=O)NNC(=O)CCc4ccc(O)cc4)cccc2-3)cc1 |
| 7 | COc1ccc(-c2[nH]nc3c2C(=O)c2c(NC(=O)NNC(=O)c4ccc(O)c(N)c4)cccc2-3)cc1 |
| 5 | COc1ccc(-c2[nH]nc3c2C(=O)c2c(NC(=O)NNC(=O)c4ccc(O)c(O)c4)cccc2-3)cc1 |
| 7 | COc1ccc(-c2[nH]nc3c2C(=O)c2c(NC(=O)NNC(=O)c4cc(OC)c(OC)c(OC)c4)cccc2-3)cc1 |
